From patent publication US10864192B2, “Compositions and methods for inhibiting brain trauma-induced neurodegeneration and related conditions” (priority 2016, dated 2020) come the findings set out here.

For orientation: logD means lipophilicity at a set pH, counting ionised and neutral species. Higher therefore signals a more lipophilic compound.

Data set [1] relates to cultured hippocampal neurons. As to the kind of experiment: Glutamate-induced excitotoxicity in cultured neurons. Particulars: phenserine 5 μM, glutamate 50 μM, 24 hr. Format: cell-based, rat (Sprague Dawley). How it is done:
Briefly, cultured hippocampal neurons in triplicate were prepared from 18-20 day rat (Sprague Dawley) embryos and were cultured for 7 days. […] Neuronal viability was assessed 24 hr after addition of glutamate. The results are plotted as percent neuronal survival±SEM. […] Twenty-four hours later cell viability was quantified (by MTS assay—using, for example but not limited to, the CellTiter 96 Aqueous One Solution Cell Proliferation Assay kit (Promega, Madison, Wis., USA) according to the manufacturer's instructions).

For another data set, the system named is SH-SY5Y neuronal cells. Kind of data set: Phenserine plus anti-inflammatory drug, oxidative stress and trophic effects in SH-SY5Y cells (MTS assay). The method, then:
Human SH-SY5Y neuronal cells were seeded in 96-well plates at a density of 1×10^5 cells per well and allowed to grow for 24 hr. […] […] At 18 hr thereafter a MTS assay was performed per the manufacturers protocol (Abcam, Cambridge, Mass.) to measure cell viability.
For example, instead of aspirin (as shown in FIG. 3A), an NSAID, naproxen, was used under the same experimental conditions at concentrations in FIGS. 3B-3D.
On the technique in general: Tetrazolium assays rely on reduction of a dye to a coloured formazan, in cell work by metabolically active cells.

In the next data set the test system is SH-SY5Y cells. Kind of data set: Oxygen-glucose deprivation/reperfusion (OGD/RP) damage on SH-SY5Y cells. Format: cell-based, human. How it is done:
Briefly, Human neuroblastoma SH-SY5Y cells were incubated in oxygen-glucose deprivation and hypoxia using serum- and glucose-free media and 95% N2 and 5% CO2 for 5 minutes. Adult male Sprague-Dawley rats (250 to 350 g weight) were anesthetized with chloral hydrate (0.4 g/kg, intraperitoneally) and right middle cerebral artery (MCA) was ligated for 60 minutes. The core body temperature of animals was maintained at 37° C. throughout the procedure.

The test system of another data set is wild-type mice. As to the kind of experiment: Concussive mTBI in wild-type mice, immunohistochemistry 72 hr post injury. Type of data set: in vivo, mouse. The conditions noted are these: 72 hr post TBI. The method, then: FIG. 18 illustrates (−)-Phenserine administration preventing mTBI-induced neurodegeneration in hippocampus and lateral cortex (72 hr post concussive TBI). […] Representative images of FJC staining in hippocampus (CA1) Magnification 60× (n=5/group; *p<0.05, **p<0.01, ***p<0.001 vs. Control (CTRL) sham by Tukey's post hoc test; ^^p<0.01 vs. mTBI alone by Tukey's post hoc test).
Neuroinflammation was evaluated by counting activated microglial cells experessing the marker IBA1 as well as by counting microglial cells co-expressing IBA1 and immunoreactivity for the pro-inflammatory cytokine TNF-α (Anti-IBA1 antibody: Abcam; anti-TNF-α antibody: Abbiotec). As evident in FIG. 20, activated microglial (IBA1 positive (+) staining) cells—a classical marker of neuroinflammation—were elevated in wild-type mice challenged with mTBI. (−)-Phenserine post-treatment mitigated this mTBI-induced effect (FIG. 20). Likewise, mTBI challenge induced a rise in IBA1+ activated microglial cells expressing the pro-inflammatory marker TNF-α (FIG. 21), which was similarly mitigated by (−)-phenserine post-treatment.
(§1) (−)-Phenserine mitigates losses in synaptic integrity in wild and Tg mice subjected to weight drop injury. To evaluate whether mTBI-induced elevations in markers of cell loss (FJC) and neuroinflammation (TNF-α and IBA1+) are allied with a loss of synaptic integrity (which associates with cognitive loss (Wakade et al., 2010)), post- and pre-synaptic protein markers of synaptic integrity (post-synaptic density-95 (PSD-95) and synaptophysin, respectively) were immunohistochemically stained and quantified in control (w/o head injury) and mTBI challenged mice post-treated with vehicle or (−)-phenserine. […] These declines were mitigated by post treatment with (−)-phenserine. An alike trend was evident in mTBI challenged APP/PS1 AD Tg mice, and these reductions in post- and presynaptic proteins were similarly mitigated by post-treatment with (−)-phenserine (FIG. 25)

Data set [2] has as its system APP/PS1 AD transgenic (Tg) male mice. As to the kind of experiment: Concussive mTBI in APP/PS1 AD Tg mice, immunohistochemistry 72 hr post injury. The conditions noted are these: 72 hr post TBI. Format: in vivo, mouse.
Source text: To study this in a model for prevention of progression of TBI pathologies into AD with resulting neuronal cell dysfunction and death, together with neuroinflammation, we used already ongoing, aged (10 to 12 month old) APP/PS1 AD transgenic (Tg) male mice were challenged with mTBI (concussive 30 g weight drop), followed by similar (−)-phenserine or vehicle post-treatment.
To similarly cross-validate this in the more complex model of aged (10 to 12 month old) APP/PS1 AD Tg male mice, animals were challenged with mTBI (concussive 30 g weight drop) followed by (−)-phenserine or vehicle post-treatment. […] Likewise, co-localization of proinflammatory TNF-α was elevated within IBA1+ microglia across brain regions in AD Tg APP/PS1 mice with and without mTBI, and this trend was mitigated by (−)-phenserine post treatment in mTBI challenged animals (FIG. 23).
as §1

The next data set can be described thus: Lipophilicity (Log D). Type of data set: physicochemical.
The mark [3] stands for this setting: 5 mg/kg BID, hippocampus and lateral cortex.

`CN1CC[C@@]2(C)c3cc(OC(=O)Nc4ccccc4)ccc3N(C)[C@@H]12` [phenserine, (−)-phenylcarbamoyleseroline]: the “cell viability (percent neuronal survival)” value in data set [1] is 73.5 % of control levels. In addition, in the data set on SH-SY5Y neuronal cells (ASA 10^−5 M, (−)-Phen 10^−7 M, 10^−6 M, H2O2 50 μM, 18 hr), the “oxidative stress-induced cellular death (cell viability)” value is reported as “no activity”. Also, the “loss in cell viability following oxidative stress” value with SH-SY5Y neuronal cells (H2O2 300 μM, phenserine 100 nM, naproxen 10 to 1000 nM) is reported as “does not statistically mitigate”. Further, the “neurotrophic effect (cell survival)” value in the data set with SH-SY5Y neuronal cells (phenserine 10 nM, naproxen 100 nM) was “no neurotrophic action”. In addition, in the data set with SH-SY5Y cells, the “matrix metallopeptidase 9 (MMP-9)” value is listed as “reduced”. For the same compound, the “mTBI-induced neurodegeneration (Fluoro-Jade C+ cells)” value in the data set with wild-type mice (setting [3]) is recorded as “fully counteracted”; in data set [2] (setting [3]), “counteracted”. Besides, the “mTBI-induced reductions in synaptophysin and PSD-95” value (in the data set with wild-type mice; in data set [2]) was “mitigated” throughout. Moreover, the “mTBI-induced activation of microglia (IBA1+ cells)” value was “mitigated” in the data set on wild-type mice (hippocampus and lateral cortex); “mitigated” in data set [2] (setting [3]). Also, the “mTBI-induced elevations in TNF-α within microglia (co-localized TNF-α and IBA1+ cells)” value was “mitigated” in the data set on wild-type mice (hippocampus and lateral cortex); “mitigated” in data set [2] (hippocampus and lateral cortex). Further, the logD in “Lipophilicity (Log D)” was 2.2.
